Experimental data from US8653087B2, “Pyrido [5, 4-D] pyrimidines as cell proliferation inhibitors” (Boehringer Ingelheim International GmbH, priority 2008, dated 2014).
pIC50: −log10 of the molar value.

The compounds below were run against B-Raf (V600E)-kinase (Homo sapiens (Human), UniProt P15056, V600E) (assay: Kinase test B-RAF (V600E)). Details: B-RAF (V600E) kinase test, 250 μM ATP.
Assay type: biochemical
In short: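 Read-out is DELFIA europium TRF of phospho-MEK (Ser217/221) on biotinylated MEK1 bound to streptavidin plates, IC50 from dose-response. Reaction ran 60 min at RT with 250 μM ATP, after a 24 h RT preincubation of compound with B-Raf (V600E) kinase, 5% DMSO final.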

B-Raf (V600E)-kinase, sequence (P15056 whole entry V600E): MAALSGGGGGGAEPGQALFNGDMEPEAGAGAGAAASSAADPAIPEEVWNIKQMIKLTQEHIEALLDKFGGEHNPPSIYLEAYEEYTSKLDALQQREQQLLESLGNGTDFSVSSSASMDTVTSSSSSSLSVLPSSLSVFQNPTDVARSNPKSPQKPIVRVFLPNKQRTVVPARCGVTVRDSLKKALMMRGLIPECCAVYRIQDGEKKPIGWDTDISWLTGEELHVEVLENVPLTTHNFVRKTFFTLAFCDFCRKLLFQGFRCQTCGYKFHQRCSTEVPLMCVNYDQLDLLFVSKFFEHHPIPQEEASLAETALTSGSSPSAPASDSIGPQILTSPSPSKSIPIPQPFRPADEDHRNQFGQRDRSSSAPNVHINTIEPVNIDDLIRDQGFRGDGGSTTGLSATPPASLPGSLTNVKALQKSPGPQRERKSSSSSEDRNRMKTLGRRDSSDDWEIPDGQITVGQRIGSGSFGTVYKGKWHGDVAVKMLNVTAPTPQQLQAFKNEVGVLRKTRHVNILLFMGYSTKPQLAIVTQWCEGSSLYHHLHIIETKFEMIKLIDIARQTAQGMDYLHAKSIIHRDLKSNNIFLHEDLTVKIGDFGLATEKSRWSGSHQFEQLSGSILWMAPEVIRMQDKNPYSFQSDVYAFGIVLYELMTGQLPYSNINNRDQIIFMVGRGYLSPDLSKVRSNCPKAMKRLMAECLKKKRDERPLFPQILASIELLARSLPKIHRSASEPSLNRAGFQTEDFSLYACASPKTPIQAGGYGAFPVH

SMILES | pIC50
Cc1ccc(C(=O)Nc2ccccc2)cc1Nc1ncnc2cnc(N3CC[C@@H](F)C3)nc12 [III-209] | 6.79
COCCN(C)c1ncc2ncnc(Nc3cc(C(=O)Nc4cc(C(C)(C)C)nn4C)ccc3C)c2n1 [III-465] | 8.70
Cc1ccc(C(=O)Nc2cc(N(C)CCN(C)C)cc(C(F)(F)F)c2)cc1Nc1ncnc2c(N)nc(N(C)C)nc12 [I-78] | 8.10
CN(C)CCNc1ncc2ncnc(Nc3cc(C(=O)Nc4cc(C(C)(C)C)on4)ccc3C(F)(F)F)c2n1 [III-65] | 5.38
CN1CCN(c2ncc3ncnc(Nc4cc(C(=O)Nc5cc(C(C)(C)C)on5)ccc4F)c3n2)CC1 [III-318] | 8.70
CCCS(=O)(=O)Nc1ccc(C)c(Nc2ncnc3cnc(N4CCN(C)CC4)nc23)c1 [IV-65] | 5.70
COCCN(C)c1ncc2ncnc(Nc3cc(C(=O)Nc4ccc(OC)c(C(F)(F)F)c4)ccc3F)c2n1 [III-30] | 8.70
COc1ccc(C(=O)Nc2ccc(OC)c(C(F)(F)F)c2)cc1Nc1ncnc2cnc(N3CCCC3)nc12 [III-26] | 7.62
COc1ccc(NC(=O)c2ccc(C)c(Nc3ncnc4cnc(N5CCN(C6CCN(C)CC6)CC5)nc34)c2)cc1C(F)(F)F [III-557] | 8.40
Cc1ccc(C(=O)Nc2cccc(C(F)(F)F)c2)cc1Nc1ncnc2cnc(N3CCNCC3)nc12 [III-339] | 9.00
Cc1ccc(C(=O)Nc2cc(OCCN(C)C)cc(C(F)(F)F)c2)cc1Nc1ncnc2cnc(N3CCC(F)CC3)nc12 [III-145] | 8.70
Cc1ccc(C(=O)Nc2cccc(N(C)C)c2)cc1Nc1ncnc2cnc(N3CCCC3)nc12 [III-271] | 8.00
Cc1ccc(NC(=O)c2cccc(C(C)(C)C#N)c2)cc1Nc1ncnc2cnc(NC3CCOC3)nc12 (centres unmarked) [IV-30] | > 9.00
COc1ccc(NC(=O)c2ccc(C(F)(F)F)c(Nc3ncnc4cnc(N(C)CCN(C)C)nc34)c2)cc1C(F)(F)F [III-43] | 6.01
Cc1ccc(C(=O)Nc2cc(CN3CCCC3)cc(C(F)(F)F)c2)cc1Nc1ncnc2cnc(N3CCCCC3)nc12 [III-106] | 8.70
Cc1ccc(NC(=O)c2cccc(C(F)(F)F)c2)cc1Nc1ncnc2c(N)nc(N3CCCN(c4ccncc4)CC3)nc12 [II-12] | 8.15
COc1ncc2ncnc(Nc3cc(C(=O)Nc4cc(C(C)(C)C)on4)ccc3C)c2n1 [III-577] | 8.70
CCN(CC)c1ncc2ncnc(Nc3cc(C(=O)Nc4cc(OCCN(C)C)cc(C(F)(F)F)c4)ccc3C)c2n1 [III-157] | 8.52
COCCN1CCN(c2ncc3ncnc(Nc4cc(C(=O)Nc5cc(-n6cnc(C)c6)cc(C(F)(F)F)c5)ccc4C)c3n2)CC1 [III-502] | 8.10
Cc1ccc(NC(=O)c2cccc(C(C)(C)C#N)c2)cc1Nc1ncnc2cnc(N3CC[C@@H](F)C3)nc12 [IV-34] | 8.70
Cc1ccc(C(=O)NCc2ccc(C(F)(F)F)cc2)cc1Nc1ncnc2cnc(N3CCCN(C)CC3)nc12 [III-221] | 6.77
CC(C)(C)c1cc(NC(=O)c2ccc(Cl)c(Nc3ncnc4cnc(N5CCCC5)nc34)c2)no1 [III-76] | 7.96
Cc1ccc(NC(=O)c2cccc(C(F)(F)F)c2)cc1Nc1ncnc2c(N)nc(N3CCCNCC3)nc12 [II-11] | 7.70
Cc1ccc(C(=O)NCC2CCOC2)cc1Nc1ncnc2cnc(N3CC[C@@H](F)C3)nc12 (some centres unmarked) [III-205] | < 5.70

SMILES | pIC50
COc1ccc(C(=O)Nc2ccc(OC)c(C(F)(F)F)c2)cc1Nc1ncnc2cnc(N3CCN(C)CC3)nc12 [III-22] | 8.22
Cc1ccc(C(=O)Nc2cc(N(C)CCN(C)C)cc(C(F)(F)F)c2)cc1Nc1ncnc2cnc(N3CCCC3)nc12 [III-440] | 6.57
COCCN1CCN(c2ncc3ncnc(Nc4cc(C(=O)Nc5ccc6c(c5)OC(F)(F)OC6(F)F)ccc4C)c3n2)CC1 [III-608] | 8.15
Cc1ccc(C(=O)Nc2cc(C(C)(C)C)n[nH]2)cc1Nc1ncnc2c(N)nc(N3CCN(C4CC4)CC3)nc12 [I-42] | 8.05
Cc1ccc(C(=O)Nc2cccc(C(F)(F)F)c2)cc1Nc1ncnc2c(N)nc(N3CCCNCC3)nc12 [I-59] | 9.00
COc1ccc(NC(=O)c2ccc(Cl)c(Nc3ncnc4cnc(N5CCCCCC5)nc34)c2)cc1C(F)(F)F [III-6] | 8.15
Cc1ccc(C(=O)Nc2cccc(C(C)(C)C)c2)cc1Nc1ncnc2cnc(NCc3ccccc3)nc12 [III-428] | > 9.00
Cc1ccc(C(=O)NCC2CCOC2)cc1Nc1ncnc2cnc(N3CCCC3)nc12 (centres unmarked) [III-256] | 4.82
Cc1ccc(C(=O)Nc2cc(C(C)(C)C)nn2C)cc1Oc1ncnc2cnc(N3CCOCC3)nc12 [III-591] | 9.00
COCCN1CCN(c2ncc3ncnc(Nc4cc(C(=O)Nc5cc(C(C)(C)C)n[nH]5)ccc4C)c3n2)CC1 [III-425] | 8.15
Cc1ccc(C(=O)Nc2cc(N3CCN(C(C)C)CC3)cc(C(F)(F)F)c2)cc1Nc1ncnc2cnc(N3CC[C@H](F)C3)nc12 [III-456] | 8.52
CC(C)(C)c1cc(NC(=O)c2ccc(C(F)(F)F)c(Nc3ncnc4cnc(N5CCCCCC5)nc34)c2)no1 [III-57] | 5.74
Cc1ccc(C(=O)Nc2cccc(C(F)(F)F)c2)cc1Nc1ncnc2cnc(N3CC[C@H](F)C3)nc12 [III-287] | 9.00
CCN1CCN(c2cc(NC(=O)c3ccc(C)c(Nc4ncnc5cnc(N(C)CC6CCCCO6)nc45)c3)cc(C(F)(F)F)c2)CC1 (centres unmarked) [III-408] | 7.60
COC[C@@H]1CCCN1c1ncc2ncnc(Nc3cc(C(=O)Nc4ccc(OC)c(C(F)(F)F)c4)ccc3C)c2n1 [III-545] | 8.70
COc1ccc(NC(=O)c2ccc(C)c(Nc3ncnc4cnc(NC5CC(N6CCN(C)CC6)C5)nc34)c2)cc1C(F)(F)F (centres unmarked) [III-593] | 9.00
Cc1ccc(C(=O)Nc2cc(OCCN(C)C)cc(C(F)(F)F)c2)cc1Nc1ncnc2cnc(N3CCOCC3)nc12 [III-149] | > 9.00
COc1ccc(NC(=O)c2ccc(C)c(Nc3ncnc4cnc(N5CCC(N6C[C@@H](C)O[C@@H](C)C6)CC5)nc34)c2)cc1C(F)(F)F [III-559] | 7.85
Cc1ccc(NC(=O)c2cccc(C(F)(F)F)c2)cc1Nc1ncnc2c(N)nc(N3CCCN(C)CC3)nc12 [II-2] | 7.39
Cc1ccc(C(=O)Nc2cc(C(C)(C)C)n[nH]2)cc1Nc1ncnc2cnc(N3CC[C@H](F)C3)nc12 [III-508] | 8.52
Cc1ccc(C(=O)Nc2cc(CN3CCCC3)cc(C(F)(F)F)c2)cc1Nc1ncnc2cnc(NCCc3ccccc3)nc12 [III-118] | 8.70
COCCNc1ncc2ncnc(Nc3cc(C(=O)Nc4cc(CN5CCCC5)cc(C(F)(F)F)c4)ccc3C)c2n1 [III-110] | 9.00
Cc1ccc(C(=O)Nc2cc(C(F)(F)F)ccn2)cc1Nc1ncnc2cnc(NCC(C)C)nc12 [III-519] | > 9.00
Cc1ccc(C(=O)Nc2cc(C(C)(C)C)on2)cc1Nc1ncnc2cnc(NCc3ccccc3)nc12 [III-521] | 8.70

SMILES | pIC50
Cc1ccc(C(=O)Nc2cc(C(C)(C)C)on2)cc1Nc1ncnc2c(N)nc(N3CCN(C4CCN(C)CC4)CC3)nc12 [I-10] | 9.00
Cc1ccc(C(=O)NCC2CCOC2)cc1Nc1ncnc2cnc(N3CCCN(C)CC3)nc12 (centres unmarked) [III-179] | < 5.15
COCCN1CCN(c2ncc3ncnc(Nc4cc(C(=O)Nc5cc(C(F)(F)F)ccc5N5CCOCC5)ccc4C)c3n2)CC1 [III-534] | 6.97
COCCN(C)c1ncc2ncnc(Nc3cc(C(=O)Nc4cccc(C(F)(F)F)c4)ccc3C)c2n1 [III-467] | 8.70
CCS(=O)(=O)Nc1ccc(C)c(Nc2ncnc3cnc(N4CCN(C)CC4)nc23)c1 [IV-64] | 6.28
Cc1ccc(C(=O)Nc2cc(C(F)(F)F)ccn2)cc1Nc1ncnc2cnc(N3CC[C@H](F)C3)nc12 [III-345] | 9.00
Cc1ccc(C(=O)Nc2cc(CN3CCCC3)cc(C(F)(F)F)c2)cc1Nc1ncnc2cnc(N3CCC(F)CC3)nc12 [III-103] | 8.70
CN1CCCN(c2ncc3ncnc(Nc4cc(C(=O)Nc5cc(C(C)(C)C)on5)ccc4Cl)c3n2)CC1 [III-70] | 8.40
Cc1ccc(NS(=O)(=O)CC2CC2)cc1Nc1ncnc2cnc(N3CCN(C)CC3)nc12 [IV-60] | 5.70
COc1ccc(NC(=O)c2ccc(C(F)(F)F)c(Nc3ncnc4cnc(N5CCCC5)nc34)c2)cc1C(F)(F)F [III-51] | 6.42
Cc1ccc(NC(=O)c2cccc(C(F)(F)F)c2)cc1Nc1ncnc2c(N)nc(N3CC4CC3CN4C)nc12 (centres unmarked) [II-18] | 8.05
COc1ccc(NC(=O)c2ccc(C)c(Nc3ncnc4cnc(N5C[C@@H](C)N[C@@H](C)C5)nc34)c2)cc1C(F)(F)F [III-436] | 8.70
Cc1ccc(C(=O)Nc2cccc(N(C)C)c2)cc1Nc1ncnc2cnc(N3CC[C@@H](F)C3)nc12 [III-243] | > 9.00
Cc1ccc(C(=O)Nc2cc(C(C)(C)C)on2)cc1Nc1ncnc2cnc(N3CCN(C4CCN(C)CC4)CC3)nc12 [III-486] | 8.40
Cc1ccc(C(=O)Nc2ccnc(C(C)(C)C)c2)cc1Nc1ncnc2cnc(N(C)C3CC(N4CCN(C)CC4)C3)nc12 (centres unmarked) [III-597] | 8.30
CN1CCN(c2cc(NC(=O)c3ccc(F)c(Nc4ncnc5cnc(N6CCOCC6)nc45)c3)cc(C(F)(F)F)c2F)CC1 [III-385] | 8.70
Cc1ccc(C(=O)NCc2ccc(C(C)(C)C)cc2)cc1Nc1ncnc2cnc(N3CCCCC3)nc12 [III-245] | 6.34
CN1CCCN(c2nc(N)c3ncnc(Nc4cc(C(=O)Nc5cccc(C(F)(F)F)c5)ccc4Cl)c3n2)CC1 [I-24] | 8.05
COc1ncc2ncnc(Nc3cc(C(=O)Nc4cc(CN5CCCC5)cc(C(F)(F)F)c4)ccc3C)c2n1 [III-572] | 9.00
COCCN(C)c1ncc2ncnc(Nc3cc(C(=O)Nc4ccc(OC)c(C(F)(F)F)c4)ccc3C(F)(F)F)c2n1 [III-42] | 7.19
Cc1ccc(C(=O)Nc2cccc(OC(F)(F)F)c2)cc1Nc1ncnc2cnc(N3CCCCC3)nc12 [III-332] | 8.40
Cc1ccc(NC(=O)c2cccc(C(F)(F)F)c2)cc1Nc1ncnc2c(N)nc(N3CCN(C)CC3)nc12 [II-1] | 7.59
CCN1CCN(c2ncc3ncnc(Nc4cc(C(=O)Nc5ccc(OC)c(C(F)(F)F)c5)ccc4C)c3n2)CC1 [III-561] | 8.05
